From PubChem BioAssay (NCI)
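Where inhibition never reached the appropriate level, the endpoint shown equals the highest concentration tested. Otherwise, values were interpolated linearly from a five-concentration, 48-hour dose response in 96-well plates. TGI: concentration producing complete growth inhibition.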

Assays:
Assay in all cases: NCI tumour cell line growth inhibition, 48 h
A498 renal = system: A498 renal
A549 NSCLC = system: A549 NSCLC
ACHN renal = system: ACHN renal
CAKI-1 renal = system: CAKI-1 renal
CCRF-CEM leukemia = system: CCRF-CEM leukemia
COLO 205 colon = system: COLO 205 colon
DLD-1 colon = system: DLD-1 colon
DMS 114 small cell lung = system: DMS 114 small cell lung
DMS 273 small cell lung = system: DMS 273 small cell lung
EKVX NSCLC = system: EKVX NSCLC
HCC-2998 colon = system: HCC-2998 colon
HCT-116 colon = system: HCT-116 colon
HCT-15 colon = system: HCT-15 colon
HL-60(TB) leukemia = system: HL-60(TB) leukemia
HOP-62 NSCLC = system: HOP-62 NSCLC
HOP-92 NSCLC = system: HOP-92 NSCLC
HT29 colon = system: HT29 colon
IGROV1 ovarian = system: IGROV1 ovarian
K-562 leukemia = system: K-562 leukemia
KM12 colon = system: KM12 colon
KM20L2 colon = system: KM20L2 colon
LOX IMVI melanoma = system: LOX IMVI melanoma
M19-MEL melanoma = system: M19-MEL melanoma
MOLT-4 leukemia = system: MOLT-4 leukemia
NCI-H226 lung = system: NCI-H226 lung
NCI-H23 lung = system: NCI-H23 lung
NCI-H460 lung = system: NCI-H460 lung
NCI-H522 lung = system: NCI-H522 lung
OVCAR-4 ovarian = system: OVCAR-4 ovarian
OVCAR-5 ovarian = system: OVCAR-5 ovarian
OVCAR-8 ovarian = system: OVCAR-8 ovarian
RPMI-8226 leukemia = system: RPMI-8226 leukemia
RXF 393 renal = system: RXF 393 renal
RXF-631 renal = system: RXF-631 renal
SF-268 CNS = system: SF-268 CNS
SF-295 CNS = system: SF-295 CNS
SF-539 CNS = system: SF-539 CNS
SK-MEL-2 melanoma = system: SK-MEL-2 melanoma
SK-MEL-28 melanoma = system: SK-MEL-28 melanoma
SK-MEL-5 melanoma = system: SK-MEL-5 melanoma
SK-OV-3 ovarian = system: SK-OV-3 ovarian
SN12C renal = system: SN12C renal
SNB-19 CNS = system: SNB-19 CNS
SNB-75 CNS = system: SNB-75 CNS
SNB-78 CNS = system: SNB-78 CNS
SR leukemia = system: SR leukemia
SW-620 colon = system: SW-620 colon
TK-10 renal = system: TK-10 renal
U251 CNS = system: U251 CNS
UACC-257 melanoma = system: UACC-257 melanoma
UACC-62 melanoma = system: UACC-62 melanoma
UO-31 renal = system: UO-31 renal
XF 498 CNS = system: XF 498 CNS
786-0 renal = system: 786-0 renal
LXFL 529 NSCLC = system: LXFL 529 NSCLC
M14 melanoma = system: M14 melanoma
MALME-3M melanoma = system: MALME-3M melanoma
OVCAR-3 ovarian = system: OVCAR-3 ovarian
HOP-18 NSCLC = system: HOP-18 NSCLC

With `CC(=O)NNc1nc(C)c(C(=O)NNC(=O)C(=O)Nc2cccc(C(C)=O)c2)s1` the TGI (A498 renal) was 47.8 µM, the TGI (A549 NSCLC) was > 100 µM and the TGI (ACHN renal) was 30.8 µM. The TGI (CAKI-1 renal) was 31.6 µM, the TGI (CCRF-CEM leukemia) was 67.3 µM and the TGI (COLO 205 colon) was > 100 µM. The TGI (DLD-1 colon) was 98.9 µM, the TGI (DMS 114 small cell lung) was 34.2 µM and the TGI (DMS 273 small cell lung) was > 100 µM. For the same compound, the TGI (EKVX NSCLC) was > 100 µM, the TGI (HCC-2998 colon) was 32.5 µM and the TGI (HCT-116 colon) was > 100 µM. The TGI (HCT-15 colon) was 52.5 µM, the TGI (HL-60(TB) leukemia) was 57.9 µM and the TGI (HOP-62 NSCLC) was 68.2 µM. For the same compound, the TGI (HOP-92 NSCLC) was 90 µM, the TGI (HT29 colon) was > 100 µM and the TGI (IGROV1 ovarian) was 60.7 µM. For the same compound, the TGI (K-562 leukemia) was > 100 µM, the TGI (KM12 colon) was 57.7 µM and the TGI (KM20L2 colon) was > 100 µM. For the same compound, the TGI (LOX IMVI melanoma) was 39.1 µM, the TGI (M19-MEL melanoma) was 43.5 µM and the TGI (MOLT-4 leukemia) was > 100 µM. For the same compound, the TGI (NCI-H226 lung) was 62 µM, the TGI (NCI-H23 lung) was 35.2 µM and the TGI (NCI-H460 lung) was 33.2 µM. For the same compound, the TGI (NCI-H522 lung) was 28.9 µM, the TGI (OVCAR-4 ovarian) was 64.3 µM and the TGI (OVCAR-5 ovarian) was > 100 µM. For the same compound, the TGI (OVCAR-8 ovarian) was 39.4 µM, the TGI (RPMI-8226 leukemia) was > 100 µM and the TGI (RXF 393 renal) was 30 µM. The TGI (RXF-631 renal) was 68.3 µM, the TGI (SF-268 CNS) was 54 µM and the TGI (SF-295 CNS) was 66.2 µM. The TGI (SF-539 CNS) was 39.8 µM, the TGI (SK-MEL-2 melanoma) was > 100 µM and the TGI (SK-MEL-28 melanoma) was 49 µM. The TGI (SK-MEL-5 melanoma) was > 100 µM, the TGI (SK-OV-3 ovarian) was 32.5 µM and the TGI (SN12C renal) was 35.1 µM. For the same compound, the TGI (SNB-19 CNS) was > 100 µM, the TGI (SNB-75 CNS) was 38.9 µM and the TGI (SNB-78 CNS) was > 100 µM. The TGI (SR leukemia) was 45.8 µM, the TGI (SW-620 colon) was > 100 µM and the TGI (TK-10 renal) was 31.1 µM. The TGI (U251 CNS) was 90.4 µM, the TGI (UACC-257 melanoma) was 49.9 µM and the TGI (UACC-62 melanoma) was 31.4 µM. It also gave a TGI (UO-31 renal) of 30.9 µM and a TGI (XF 498 CNS) of 30.6 µM.

For `COC(=O)CC(C(C(=O)OCc1ccccc1)C(C)O)N1C(=O)OC(c2ccccc2)C1c1ccccc1` (stereo unspecified), the TGI (786-0 renal) was > 100 µM, the TGI (A498 renal) was > 100 µM and the TGI (A549 NSCLC) was > 100 µM. The TGI (ACHN renal) was > 100 µM, the TGI (CCRF-CEM leukemia) was > 100 µM and the TGI (COLO 205 colon) was > 100 µM. For the same compound, the TGI (DLD-1 colon) was > 100 µM, the TGI (DMS 114 small cell lung) was > 100 µM and the TGI (DMS 273 small cell lung) was > 100 µM. The TGI (EKVX NSCLC) was > 100 µM, the TGI (HCC-2998 colon) was > 100 µM and the TGI (HCT-116 colon) was > 100 µM. The TGI (HCT-15 colon) was > 100 µM, the TGI (HL-60(TB) leukemia) was > 100 µM and the TGI (HOP-62 NSCLC) was > 100 µM. The TGI (HT29 colon) was > 100 µM, the TGI (IGROV1 ovarian) was > 100 µM and the TGI (K-562 leukemia) was > 100 µM. The TGI (KM20L2 colon) was > 100 µM, the TGI (LOX IMVI melanoma) was > 100 µM and the TGI (LXFL 529 NSCLC) was > 100 µM. The TGI (M14 melanoma) was > 100 µM, the TGI (M19-MEL melanoma) was > 100 µM and the TGI (MALME-3M melanoma) was > 100 µM. The TGI (MOLT-4 leukemia) was > 100 µM, the TGI (NCI-H226 lung) was > 100 µM and the TGI (NCI-H23 lung) was > 100 µM. For the same compound, the TGI (NCI-H460 lung) was > 100 µM, the TGI (OVCAR-3 ovarian) was > 100 µM and the TGI (OVCAR-4 ovarian) was > 100 µM. The TGI (OVCAR-8 ovarian) was > 100 µM, the TGI (RPMI-8226 leukemia) was > 100 µM and the TGI (RXF 393 renal) was > 100 µM. The TGI (RXF-631 renal) was > 100 µM, the TGI (SF-268 CNS) was > 100 µM and the TGI (SF-295 CNS) was > 100 µM. The TGI (SF-539 CNS) was > 100 µM, the TGI (SK-MEL-2 melanoma) was > 100 µM and the TGI (SK-MEL-28 melanoma) was > 100 µM. For the same compound, the TGI (SK-MEL-5 melanoma) was > 100 µM, the TGI (SN12C renal) was > 100 µM and the TGI (SNB-19 CNS) was > 100 µM. For the same compound, the TGI (SR leukemia) was > 100 µM, the TGI (SW-620 colon) was > 100 µM and the TGI (TK-10 renal) was > 100 µM. For the same compound, the TGI (U251 CNS) was > 100 µM, the TGI (UACC-257 melanoma) was > 100 µM and the TGI (UACC-62 melanoma) was > 100 µM. For the same compound, the TGI (UO-31 renal) was > 100 µM and the TGI (XF 498 CNS) was > 100 µM.

For `CCOC(=O)CCC1(C(=O)OCC)CCCC1=O` (stereo unspecified), the TGI (786-0 renal) was > 100 µM, the TGI (A498 renal) was > 100 µM and the TGI (A549 NSCLC) was > 100 µM. For the same compound, the TGI (ACHN renal) was > 100 µM, the TGI (CAKI-1 renal) was > 100 µM and the TGI (CCRF-CEM leukemia) was > 100 µM. For the same compound, the TGI (COLO 205 colon) was > 100 µM, the TGI (DLD-1 colon) was > 100 µM and the TGI (DMS 114 small cell lung) was > 100 µM. The TGI (DMS 273 small cell lung) was > 100 µM, the TGI (EKVX NSCLC) was > 100 µM and the TGI (HCC-2998 colon) was > 100 µM. For the same compound, the TGI (HCT-116 colon) was > 100 µM, the TGI (HCT-15 colon) was > 100 µM and the TGI (HL-60(TB) leukemia) was > 100 µM. For the same compound, the TGI (HOP-18 NSCLC) was > 100 µM, the TGI (HOP-62 NSCLC) was > 100 µM and the TGI (HOP-92 NSCLC) was > 100 µM. The TGI (HT29 colon) was > 100 µM, the TGI (IGROV1 ovarian) was > 100 µM and the TGI (K-562 leukemia) was > 100 µM. For the same compound, the TGI (KM12 colon) was > 100 µM, the TGI (KM20L2 colon) was > 100 µM and the TGI (LOX IMVI melanoma) was > 100 µM. The TGI (LXFL 529 NSCLC) was > 100 µM, the TGI (M14 melanoma) was > 100 µM and the TGI (M19-MEL melanoma) was > 100 µM. The TGI (MALME-3M melanoma) was > 100 µM, the TGI (MOLT-4 leukemia) was > 100 µM and the TGI (NCI-H226 lung) was > 100 µM. For the same compound, the TGI (NCI-H23 lung) was > 100 µM, the TGI (NCI-H460 lung) was > 100 µM and the TGI (NCI-H522 lung) was > 100 µM. The TGI (OVCAR-3 ovarian) was > 100 µM, the TGI (OVCAR-4 ovarian) was > 100 µM and the TGI (OVCAR-5 ovarian) was > 100 µM. For the same compound, the TGI (OVCAR-8 ovarian) was > 100 µM, the TGI (RPMI-8226 leukemia) was 77.4 µM and the TGI (RXF 393 renal) was > 100 µM. The TGI (RXF-631 renal) was > 100 µM, the TGI (SF-268 CNS) was > 100 µM and the TGI (SF-295 CNS) was > 100 µM. For the same compound, the TGI (SF-539 CNS) was > 100 µM, the TGI (SK-MEL-2 melanoma) was > 100 µM and the TGI (SK-MEL-28 melanoma) was > 100 µM. The TGI (SK-MEL-5 melanoma) was > 100 µM, the TGI (SK-OV-3 ovarian) was > 100 µM and the TGI (SN12C renal) was > 100 µM. For the same compound, the TGI (SNB-19 CNS) was > 100 µM, the TGI (SNB-75 CNS) was > 100 µM and the TGI (SNB-78 CNS) was > 100 µM. The TGI (SR leukemia) was 60.4 µM, the TGI (TK-10 renal) was > 100 µM and the TGI (U251 CNS) was > 100 µM. For the same compound, the TGI (UACC-257 melanoma) was > 100 µM, the TGI (UACC-62 melanoma) was > 100 µM and the TGI (UO-31 renal) was > 100 µM. For the same compound, the TGI (XF 498 CNS) was > 100 µM.
